Assay results taken from ChEMBL document CHEMBL1148858, “Discovery of novel benzimidazolones as potent non-nucleoside reverse transcriptase inhibitors active against wild-type and mutant HIV-1 strains” (Bioorg Med Chem Lett, 2007).

Tests used:
[1] = tested on: Human immunodeficiency virus 1; assay: Antiviral activity against HIV1 with reverse transcriptase Y188H mutation in CEM cells assessed as inhibition of virus-induced giant cell formation; assay type: functional, organism-based; settings: Human immunodeficiency virus 1, CCRF-CEM
[2] = tested on: Human immunodeficiency virus 1; assay: Antiviral activity against HIV1 with reverse transcriptase E138K mutation in CEM cells assessed as inhibition of virus-induced giant cell formation; assay type: functional, organism-based; settings: Human immunodeficiency virus 1, CCRF-CEM
[3] = tested on: Human immunodeficiency virus 1; assay: Antiviral activity against HIV1 with reverse transcriptase L100I mutation in CEM cells assessed as inhibition of virus-induced giant cell formation; assay type: functional, organism-based; settings: Human immunodeficiency virus 1, CCRF-CEM
[4] = tested on: Human immunodeficiency virus 1; assay: Antiviral activity against HIV1 3B in CEM cells assessed as inhibition of virus-induced giant cell formation; assay type: functional, organism-based; settings: Human immunodeficiency virus 1, 3B, CCRF-CEM
[5] = tested on: Human immunodeficiency virus 1; assay: Antiviral activity against HIV1 with reverse transcriptase K103N mutation in CEM cells assessed as inhibition of virus-induced giant cell formation; assay type: functional, organism-based; settings: Human immunodeficiency virus 1, CCRF-CEM
[6] = Cytotoxicity against MT4 cells assessed as reduction of cell viability; assay type: cell-based; settings: human
[7] = tested on: Human immunodeficiency virus 1; assay: Antiviral activity against HIV1 with reverse transcriptase Y181C mutation in CEM cells assessed as inhibition of virus-induced giant cell formation; assay type: functional, organism-based; settings: Human immunodeficiency virus 1, CCRF-CEM
[8] = tested on: Human immunodeficiency virus 1; assay: Antiviral activity against HIV1 assessed as reduction of virus-induced cytopathic effect in MT4 cells; assay type: functional, organism-based; settings: Human immunodeficiency virus 1, MT4
[9] = biological target: Human immunodeficiency virus type 1 reverse transcriptase (Human immunodeficiency virus 1, UniProt Q72547); assay: Inhibition of RNA dependent DNA polymerase activity of HIV1 recombinant reverse transcriptase
[10] = Selectivity index, ratio of CC50 for human MT4 cells to EC50 for HIV1; assay type: functional

| Compound | EC50 [1] [nM] | EC50 [2] [nM] | EC50 [3] [nM] | EC50 [4] [nM] | EC50 [5] [nM] | CC50 [6] [nM] | EC50 [7] [nM] | EC50 [8] [nM] | IC50 [9] [nM] | Ratio CC50/EC50 [10] |
| --- | --- | --- | --- | --- | --- | --- | --- | --- | --- | --- |
| Cc1ccnc2c1NC(=O)c1cccnc1N2C1CC1 [NEVIRAPINE] | > 75000 | 207 | 199 | 30 | 1300 | > 15000 | 2500 | 73 | – | – |
| O=C1Nc2ccc(Cl)cc2[C@@](C#CC2CC2)(C(F)(F)F)O1 [EFAVIRENZ] | 49 | 9.6 | – | – | 218 | > 6000 | 6.1 | – | – | – |
| Cc1cc(C)cc(Cn2c(=O)[nH]c3ccc(Cl)cc32)c1 | > 3000 | 665 | 49 | 81 | ≥ 3000 | 8900 | > 3000 | 32 | 150 | 281 |
| O=c1[nH]c2ccc(Cl)cc2n1Cc1c(F)cccc1F | > 50000 | 2500 | 3100 | 374 | > 50000 | > 424000 | > 50000 | 240 | 700 | >1766 |
| Cc1cc(C)cc(S(=O)(=O)n2c(=O)[nH]c3ccc(Cl)cc32)c1 | 1500 | 15 | 6 | 3 | 29 | 39000 | 160 | 2 | 5 | 17846 |
